These results are taken from ChEMBL document CHEMBL1201862, “PubChem BioAssay data set” (2004).

Some test systems named below: M19-MEL; LXFL 529; DLD-1; SNB-78; DMS-114; HOP-18; XF498; RXF 631; 786-0.
Test in all cases: NCI-60 cell line screen, 48 h

Molecules are shown by their SMILES.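 These data come from cells grown in 96-well plates and exposed to compound for 48 hours at five concentrations. Abbreviation: GI50, concentration required for 50% inhibition of growth.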 Activity calls are given as the source filed them. No stated cut-off is given here; in the data, active = GI50 up to about 1.1 µM and inactive = higher. Bounds are passed on as bounds.

As to `Cc1cn(C2CC(O)C(CO)C2C)c(=O)[nH]c1=O` (stereo not given), the GI50 in the experiment on M19-MEL, with LXFL 529, in the experiment on DLD-1, with SNB-78, with DMS-114 and in the experiment on HOP-18 was > 100 µM (inactive) throughout. The GI50 in the experiment with XF498 and with RXF 631 was > 100 µM (inactive) each time.
`CCNc1cnc2c(n1)c(=O)n(C)c(=O)n2C`: the GI50 with M19-MEL, in the experiment with LXFL 529, in the experiment on DLD-1, with DMS-114 and in the experiment with XF498 was > 100 µM (inactive) each time.
Turning to `CC(C)=CCC/C(C)=C/CCC1(C)C=Cc2c(c3ccccc3oc2=O)O1` (stereo not given), the GI50 with M19-MEL is 17.3 µM (inactive); in the experiment on DLD-1, 14.7 µM (inactive); in the experiment with SNB-78, > 56.2 µM (inactive); with DMS-114, 15.8 µM (inactive); in the experiment on HOP-18 it was 17.3 µM (inactive); in the experiment on XF498 it was 15.5 µM (inactive).
On to `CSc1ncc2c(n1)sc1c(=O)n(-c3ccccc3)cnc12`, for which, in the experiment with 786-0, the GI50 was > 100 µM (inactive).
As to `CNS(=O)(=O)NN(C)S(=O)(=O)c1ccc(F)cc1`, the GI50 with LXFL 529, in the experiment on DLD-1, with 786-0, in the experiment on DMS-114, in the experiment with HOP-18 and with XF498 was > 100 µM (inactive) in each case.
With `CCSc1nc(N/N=C/c2cccs2)c2cnn(CO)c2n1`, in the experiment on 786-0, the GI50 is 0.0614 µM (active).
The same measure, in the same setting: then `CCCCCCCCCCCCCCCCCc1cc(Cl)nc(Cl)n1`, with > 100 µM (inactive).
With `Cc1cc(C)c(C2=NO[C@@H]3C(=O)N(c4ccc(Cc5ccc(N6C(=O)[C@H]7C(c8c(C)cc(C)cc8C)=NO[C@H]7C6=O)cc5)cc4)C(=O)[C@H]23)c(C)c1`, the GI50 with M19-MEL, in the experiment with LXFL 529, with DLD-1, in the experiment with SNB-78, in the experiment with 786-0 and with DMS-114 was > 100 µM (inactive) throughout. Further, the GI50 in the experiment with HOP-18 and in the experiment with XF498 was > 100 µM (inactive) in each case.
For `N#Cc1ccc(-c2nc(C#N)c(N)o2)cc1`, the GI50 in the experiment with 786-0 was > 10 µM (inactive).
As to `CC1(C)OC2OC(COC(=O)c3ccc(C#N)cc3)C3OC(C)(C)OC3C2O1` (stereo not given), the GI50 in the experiment with 786-0 was > 75 µM (inactive).
Consider `Cc1cc(C)n(-c2c(O)ccc(O)c2-n2nc(C)cc2C)n1`, for which the GI50 with M19-MEL was 71.6 µM (inactive); in the experiment on LXFL 529 it was > 100 µM (inactive); in the experiment on DLD-1, > 100 µM (inactive); in the experiment on SNB-78 it was > 100 µM (inactive); in the experiment with 786-0, > 100 µM (inactive); with DMS-114, > 100 µM (inactive). In addition, the GI50 in the experiment on XF498 and in the experiment on RXF 631 was > 100 µM (inactive) each time.
Turning to `Nc1ccc(Sc2nnc(N)s2)cc1`, the GI50 in the experiment on 786-0 was > 100 µM (inactive).
As for `CC1=NC=C(O)c2ccccc2O1`, the GI50 in the experiment with M19-MEL, in the experiment with LXFL 529, in the experiment with DLD-1, in the experiment with SNB-78, in the experiment on 786-0 and in the experiment with DMS-114 was > 100 µM (inactive) in each case.
For `CSc1cc(-c2cc3ccccc3o2)oc(=O)c1C#N`, the GI50 in the experiment with LXFL 529 is > 100 µM (inactive); with DLD-1, > 100 µM (inactive); in the experiment on SNB-78 it was 88.1 µM (inactive); with DMS-114, 7.43 µM (inactive); in the experiment with HOP-18, 0.637 µM (active); in the experiment with XF498, 5.83 µM (inactive). Moreover, the GI50 with RXF 631 is 64.7 µM (inactive).
As to `CCN(CC)/[N+]([O-])=N/OC`, the GI50 with M19-MEL, with LXFL 529, in the experiment on SNB-78 and in the experiment on XF498 was > 100 µM (inactive) throughout.
With `CC(C)(C)OC(=O)C1C(=O)NC(=O)CC1CC(OCc1ccccc1)C(COCc1ccccc1)OCc1ccccc1` (stereo not given), in the experiment on 786-0, the GI50 was 6.79 µM (inactive).
`COC(=O)C1=C(C(=O)OC)C2(C)C=CC1O2` (stereo not given): the GI50 with 786-0 was 3.78 µM (inactive).
As for `Oc1ccc2ccccc2c1/N=N/c1cccc2ccccc12`, the GI50 with 786-0 is 66.1 µM (inactive).
Turning to `CC1(C)O[C@@H](C[C@]2(C#N)C[C@H](CCl)OC(C)(C)O2)C[C@@H](C#N)O1`, the GI50 with M19-MEL, in the experiment with DLD-1, with SNB-78, in the experiment on 786-0, in the experiment with DMS-114 and with HOP-18 was > 100 µM (inactive) throughout. Also, the GI50 in the experiment on XF498 was 55.8 µM (inactive).
On to `O=C1C(=O)c2ccccc2C=C1[N+](=O)[O-]`, for which the GI50 in the experiment with 786-0 was 45.1 µM (inactive).
Consider `C=C1C[C@@H]2C[C@@H](C)CC(O)[C@]2(CCCN)C1O` (stereo not given in full), for which the GI50 in the experiment on M19-MEL, in the experiment on LXFL 529, in the experiment with DLD-1, with SNB-78, with 786-0 and in the experiment on DMS-114 was > 100 µM (inactive) throughout. For the same compound, the GI50 with HOP-18, with XF498 and with RXF 631 was > 100 µM (inactive) throughout.
On to `COc1cc(O)cc(/C=C/c2ccc(O)cc2)c1`, for which the GI50 in the experiment with 786-0 was 29.6 µM (inactive).
For `C=C(C)C(=O)O[C@H]1CC2=C[C@@H](C[C@@]3(C)O[C@@H]3[C@H]3OC(=O)C(=C)[C@@H]31)OC2=O` [ELEPHANTOPIN], the GI50 in the experiment with M19-MEL was 2.49 µM (inactive); in the experiment with DLD-1, 0.897 µM (active); in the experiment with SNB-78, 2.09 µM (inactive); in the experiment with DMS-114, 4.47 µM (inactive); with HOP-18 it was 4.33 µM (inactive).
